Like-named read-outs stand apart in the source and are kept apart here. No end group written: not given here.
Tests used:
Met = settings: Matzke et al., Cancer Res. (2005), cited from earlier work
[1] = system: HGF induced activation of the receptor tyrosine kinase Met and ERK; assay: HGF-induced activation of Met and ERK in BSp73ASs6 cells (western blot); format: cell-based, rat; settings: HGF 10 ng/ml, peptide added 10 min before induction
Method: (§1) Serum-starved cells (24 hours) were induced with the growth factor HGF (10 ng/mL) at 37° C. for 5 minutes. Where indicated, the cells were treated with peptides (100 ng/ml) prior to induction at 37° C. for 10 minutes (100 ng/mL CD44v6 peptide or control peptide). Following the induction with HGF, cells were washed with ice-cold phosphate-buffered saline (PBS). To detect activated Met and Erk, cells were lysed in sodium dodecyl sulfate (SDS)-sample buffer containing 100 mM dithiothreitol (DTT), boiled and subjected to western blot analysis using antibodies against phospho-Met and ERK. The loading controls were performed on the same blot after stripping (62.5 mM Tris, pH 6.8, 2% SDS, 0.8% DTT) by probing with the Met respectively ERK antibody. Blots were stained using the enhanced chemiluminescence system (Thermo Fisher Scientific, Schwerte, Germany). Bands in western blot analysis were quantified with the program Image J (National Institutes of Health).
The PEG-control peptide and PEG-rat CD44v6 peptide were compared for their ability to block HGF induced activation of the receptor tyrosine kinase Met and ERK. […]
Activation of ERK and Met was determined by standard SDS and Western Blotting techniques using a phospho-Met and phospho-Erk specific antibody (phospho-Met clone D16 cell signaling, phospho-Erk p42/44 cell signaling)

BSp73ASs6 cells = assay: Staining of fixed BSp73ASs6 cells with DY681-labeled peptides; format: binding, rat; settings: DY681-labeled peptide, one hour
Method: (§2) ASs6 or L3.6p1 cells were seeded at 5,000 cells/well of a Lab-Tek® Chamber Slide™ (Nunc, Napierville, Ill., USA). On the following day the cells were washed with cold PBS and fixed with 4% Formalin for 30 min at RT. Unspecific binding was blocked with 1% BSA in PBS for 1 hour at RT. The cells were incubated for 1 hour with the DY681-labeled peptides. After three washing steps with PBS the cover slips were mounted with Fluorescence Mounting Medium (Dako, Glostrup, Denmark) and the immunofluorescence was measured by a laser scanning confocal microscope Leica TCS2 SP2 (Exton, Pa., USA) and processed using Leica confocal software. A 20× objective was used for imaging.

BSp73ASs6 tumors = settings: rat, iv
Method: In vivo imaging of the subcutaneously grown BSp73ASs6 tumors in BD10 or BDX rats was performed using the near infrared fluorescence (NIRF)-imaging system Optix MX2 (ART, Montreal, Canada) as described earlier (Napp et al., Int J Cancer (2010), 127:1958-1974). To avoid autofluorescence of fur, rats were shaved around the tumor prior to imaging. Subsequently, animals were anesthetized using 2% isoflurane and gently fixed on the devices' heated plate for the entire time of data acquisition. To reduce fluorescence background, rats were fed with chlorophyll-reduced food (Provimi Kliba AG, Kaiseraugst, Switzerland) for one week prior NIRF imaging. All in vivo analyses were preceded by native scans of animals without any injection of the fluorescent probe. For in vivo analysis, rats were injected with 200 DY681-labeled rat v6 11mer peptide or the human v6 11mer peptide via the tail vein. […]
DY681 fluorescence was measured using excitation at 670 nm in combination with a 700 nm long-pass emission filter. […] Data sets were analyzed with OptiView (ART).
For in vivo experiments, BSp73ASs6 cells were injected subcutaneously into syngeneic rats. […] The accumulation of the fluorescence was measured in the tumor region by Optix MX2 at the indicated time points. […] Then, in vivo binding kinetics of the Dy681-labeled v6 peptides to the subcutaneous tumors were determined.

[2] = system: Met activation and downstream signaling to ERK; assay: HGF-induced activation of Met and ERK in L3.6p1 cells (western blot); format: cell-based, human; settings: HGF 10 ng/ml
Method: as §1
To expand the studies to human pancreatic tumors, the highly metastatic human pancreatic carcinoma cells L3.6p1 (Bruns, et al. Neoplasia (1999), 1(1):50-62) were investigated. These cells originate from the […] cells that have been passaged several times in the liver and the pancreas, a step that rendered them more and more metastatic. It was confirmed that Met is dependent on CD44v6 for its activation and signaling in these cells (FIG. 4A). The L3.6p1 cells were treated with HGF in the presence or absence of a human v6 peptide of SEQ ID NO: 2 or SEQ ID NO:6 and Met activation and downstream signaling to ERK was measured.

L3.6p1 cells = assay: Staining of L3.6p1 cells with DY681-labeled peptides; format: binding, human; settings: DY681-labeled peptide
Method: as §2

L3.6p1 tumors = assay: In vivo and ex vivo imaging with Pearl Imager of mice bearing L3.6p1 tumors; set-up: species or system mouse
Method: In vivo imaging of the mice with the L3.6p1 tumors was performed using the Pearl™ Imager (LI-COR Biosciences, Bad Homburg, Germany) The system uses two lasers (685 and 785 nm) for excitation and a charge-coupled device detector for signal detection. The laser excitation enables a deep tissue penetration. With the near-infrared detection a high sensitivity due to the reduced tissue auto-fluorescence is achieved. In order to standardize the images we made use of the Pearl Cam Software. The animals were fed with chlorophyll-reduced food to reduce the fluorescence background one week before imaging (Regime 210, safe-diets, Augy, France). Prior to imaging the mice were anesthetized with 2.0% isoflurane. Animals were placed on the heated plate of the imager and continuous delivery of isoflurane was achieved through a nose cone in the imaging drawer. Images were captured at white light, 700 and 800 nm Animals were imaged prior to i.v. peptide injection and 24 h after injection with either DY681-labeled human v6 peptide or DY681-labeled rat v6 peptide as control Immediately after each imaging session animals were killed, tumor, liver and spleen isolated and scanned ex vivo at white light, 700 and 800 nm.

A-R-W-H-A (ARWHA) [A-R-W-H-A (SEQ ID NO: 3)]
inhibition of CD44v6 mediated activation of Met (Met): capable of abrogating Met activation
inhibition of CD44v6 mediated activation of Met (Met; listed as SEQ ID NO: 3): still active in inhibiting CD44v6 mediated activation of Met

WFENEWQGKNP (also: DY681 dye, position not given here) [DY681 rat v6 peptide]
inhibition of HGF-induced activation of Met and Erk [1]: inhibited Met activation
binding to BSp73ASs6 cells in tissue culture (BSp73ASs6 cells): bound to BSp73ASs6 cells in tissue culture
time of maximum fluorescence intensity over the tumor area (BSp73ASs6 tumors; in vivo): 1 days
duration of high fluorescence intensity over the tumor area in vivo (BSp73ASs6 tumors): at least 2 days

WFGNRWHEGYR (also: DY681 dye, position not given here) [DY681 human v6 peptide, human 11mer labeled with the fluorescent dye DY681]
inhibition of HGF-induced activation (phosphorylation) of Met and ERK [2]: inhibited Met activation in L3.6p1 cells
binding to L3.6p1 cells in cell culture (L3.6p1 cells): bound to these cells in cell culture
fluorescence in the tumor in vivo (L3.6p1 tumors; one i.v. injection of 20 μg, 24 h after injection): accumulated specifically in the tumor
ex vivo fluorescence in primary tumors, livers and spleens (L3.6p1 tumors; organs excised 24 h after injection): binding not only to primary tumors but also to areas of the liver

From patent US9586993B2, “CD44v6-derived peptides for treating pancreatic cancer” (AMCURE GMBH, priority 2012, dated 2017)
